Source: patent publication US20100234221A1, “USE OF TETRAMIC ACID DERIVATIVES WITH FERTILIZERS” (BAYER CROPSCIENCE AG, priority 2006, published 2010)

Tests used:
Aphis gossypii = assay: Use Example A: field plots of cotton sprayed against Aphis gossypii; type: in vivo; details: cotton FM966LL field plots, I-4 44 g of a.i./ha, Dyne-amic 0.455 % (v/v), UAN 0.7 % (v/v) where added
Procedure: In three replications, plots of a size of about 66 m^2 with cotton of the cultivar FM966LL are treated against Aphis gossypii. Here, the active compound I-4 (as 1500D formulation) is applied with a sprayer (High Clearance Sprayer, High Boy) at the stated application rates. The amount of water applied is about 150 l/ha. An adjuvant and/or a fertilizer (UAN=ammonium nitrate/urea solution with 28% by weight of nitrogen) are added to the spray liquor at the stated concentration. Here, it becomes evident that the composition according to the invention is equivalent to a composition comprising an adjuvant known to be efficient.

[1] = tested on: cotton aphids (Aphis gossypii); assay: Example B-1: spray treatment of cotton plants heavily infested by cotton aphids; type: in vivo; details: AHL or NH4NO3 12.5 g/l, RME 1 g ai/l where added
Procedure: To prepare a suitable product solution, 1 part by weight of formulated goods (for example an oil suspension OD 150 prepared according to known methods) is mixed with water to give the desired concentration. The desired fertilizer or penetrant is added in a defined amount and mixed in well.
Cotton plants (Gossypium herbaceum) which are heavily infested by the cotton aphids (Aphis gossypii) are treated by spraying with the product solution at the desired concentration.
After the desired period of time, the kill in % is determined. Here, 100% means that all aphids have been killed; 0% means that none of the aphids have been killed.

Compound: CCOC(=O)OC1=C(c2cc(C)ccc2C)C(=O)N[C@]12CC[C@@H](OC)CC2 [Compound I-4]
- Effect (% Abbott) After 2 days (Aphis gossypii; after 2 days): 66.7 % Abbott
- Effect (% Abbott) After 5 days (Aphis gossypii; after 5 days): 65.8 % Abbott
- Effect (% Abbott) After 9 days (Aphis gossypii; after 9 days): 13.9 % Abbott
- Kill in % after 7d ([1]; I-4 0.96 g ai/ha): 25%
- Kill in % after 7d ([1]; I-4 4.8 g ai/ha): 90%
